Measured values from PubChem BioAssay (NCI).
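Five compound concentrations were applied to cells in 96-well plates for 48 hours; endpoints were derived by simple linear interpolation of the resulting dose-response curve. GI50 marks 50% less growth. TGI is the concentration that stops growth completely.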

Assays:
Assay in all cases: NCI anticancer screen, dose series, 48 h
HCT-116 colon = test system: HCT-116 colon
HOP-92 NSCLC = test system: HOP-92 NSCLC
HT29 colon = test system: HT29 colon
IGROV1 ovarian = test system: IGROV1 ovarian
MALME-3M melanoma = test system: MALME-3M melanoma
NCI-H460 lung = test system: NCI-H460 lung
OVCAR-3 ovarian = test system: OVCAR-3 ovarian
SK-MEL-5 melanoma = test system: SK-MEL-5 melanoma
UO-31 renal = test system: UO-31 renal
NCI-H522 lung = test system: NCI-H522 lung

SMILES | TGI (HCT-116 colon) [µM] | TGI (HOP-92 NSCLC) [µM] | TGI (HT29 colon) [µM] | TGI (IGROV1 ovarian) [µM] | TGI (MALME-3M melanoma) [µM] | TGI (NCI-H460 lung) [µM] | TGI (OVCAR-3 ovarian) [µM] | TGI (SK-MEL-5 melanoma) [µM] | TGI (UO-31 renal) [µM] | GI50 (HCT-116 colon) [µM] | GI50 (HOP-92 NSCLC) [µM] | GI50 (HT29 colon) [µM] | GI50 (IGROV1 ovarian) [µM] | GI50 (MALME-3M melanoma) [µM] | GI50 (NCI-H460 lung) [µM] | GI50 (NCI-H522 lung) [µM] | TGI (NCI-H522 lung) [µM] | GI50 (OVCAR-3 ovarian) [µM] | GI50 (SK-MEL-5 melanoma) [µM] | GI50 (UO-31 renal) [µM]
CC1CC(=O)Nc2ccc(Cl)cc2N1C(=O)CN1CCC(CCCCN(C)C)CC1 (stereo unspecified) | > 100 | > 100 | > 100 | > 100 | > 100 | > 100 | > 100 | > 100 | > 100 | – | – | – | – | – | – | – | – | – | – | –
CN1CCN(CCCOc2cccc3nc(Nc4cc(Cl)cc(Cl)c4)ccc23)CC1 | 3.47 | 4.82 | 2.78 | 3.59 | 3.7 | 3.43 | 3.18 | 3.75 | 2.95 | 1.94 | 1.59 | 1.41 | 1.68 | 1.92 | 1.84 | 1.64 | 3.17 | 1.68 | 1.93 | 1.49
CCCCCC/C=C/C#CCCCCCCCC(=O)O | > 100 | > 100 | > 100 | > 100 | > 100 | > 100 | > 100 | > 100 | – | – | – | – | – | – | – | – | > 100 | – | – | –
Nc1nc(=O)n(C2CC(O)C(CO)O2)cc1F (stereo unspecified) | > 100 | – | > 100 | > 100 | > 100 | > 100 | > 100 | > 100 | > 43.3 | 1.49 | 1.65 | < 0.0489 | > 100 | > 100 | 0.00231 | – | > 100 | – | 0.228 | –
O=C1OC(CC(=O)c2ccc(F)cc2)C(Cl)=C1Cl (stereo unspecified) | 46.2 | 34.7 | 32.1 | 72.7 | 33.8 | 52.2 | 38.7 | 60.4 | 38.5 | – | – | – | – | – | – | – | 34.9 | – | – | –
O=C(CCC(=O)Nc1ccccc1C(F)(F)F)N/N=C1\C(=N\NC(=O)CCC(=O)Nc2ccccc2C(F)(F)F)C(c2ccc3c(c2)OCO3)Oc2ccccc21 (stereo unspecified) | > 100 | > 87.1 | > 100 | > 100 | > 100 | > 100 | > 100 | > 100 | > 100 | – | – | – | – | – | – | – | > 72.8 | – | – | –
COc1ccccc1-n1cnc(N)c1C(=O)c1cc(OC)c(OC)c(OC)c1 | > 100 | > 100 | > 100 | > 100 | > 100 | > 100 | 19.3 | > 100 | > 100 | 4.95 | 43.8 | 3.41 | 3.88 | 4.33 | 3.47 | 1.94 | > 100 | 3.34 | 3.13 | 4.21
O=C(NC1CCN(Cc2ccccc2)CC1)c1cc(-c2cccnc2)nc2ccc(Cl)cc12 | 26.4 | – | – | 81.8 | > 100 | 21.7 | 28 | > 100 | 21.4 | 5.47 | – | – | 16.1 | 7.92 | 4.24 | – | – | 11.3 | 3.91 | 4.24
CCOC(=O)c1oc2c(OC)ccc3c2c1CCC3 | – | > 100 | > 100 | > 100 | > 100 | > 100 | > 100 | > 100 | > 100 | – | – | – | – | – | – | – | > 100 | – | – | –
Cc1c2cnccc2c(C)c2c1c1cc(O)ccc1n2C(C)C | 6.56 | 7.28 | 11.5 | – | 2.58 | 1.56 | 6.86 | 3 | 5.21 | 0.964 | 2.11 | 3.11 | – | 0.756 | 0.361 | 0.475 | 2.54 | 2.04 | 1.35 | 0.785
N#CCCN(CCC#N)c1ccc(/C=C(/NC(=O)c2cc([N+](=O)[O-])ccc2Cl)C(=O)N=[N+]=[N-])cc1 | > 100 | – | > 100 | > 100 | > 100 | > 100 | > 100 | > 100 | > 100 | – | – | – | – | – | – | – | > 100 | – | – | –
O/N=C1/CCC/C1=C\c1ccccc1 | > 100 | > 100 | – | > 100 | > 100 | > 100 | > 100 | > 100 | > 100 | – | – | – | – | – | – | – | > 100 | – | – | –
O=S(=O)(C1=CC(S(=O)(=O)c2ccccc2)COC1)c1ccccc1 (stereo unspecified) | > 100 | – | > 100 | > 100 | > 100 | > 100 | > 100 | – | > 100 | – | – | – | – | – | – | – | > 100 | – | – | –
CC(=O)Nc1ccccc1-c1nc2ccccc2nc1-c1ccccc1 | > 100 | > 100 | > 100 | > 100 | – | > 100 | > 100 | – | > 100 | – | – | – | – | – | – | – | – | – | – | –
CC(C)N(C(=O)C12C3C4C1C1C2C3C41C(=O)C(C)(C)C)C(C)C (stereo unspecified) | > 100 | – | > 100 | > 100 | > 100 | – | > 100 | > 100 | > 100 | – | – | – | – | – | – | – | 56.8 | – | – | –
CCOC(=O)/C(=C/CC/C(C)=C/CC/C(C)=C/CCc1ccoc1)CC(=O)N1CCCCC1 | 10.2 | 4.26 | – | 47.2 | 7.09 | 3.7 | 12.3 | 3.09 | 12.8 | 2.66 | 1.7 | – | 14 | 2.62 | 1.82 | 2.75 | 9.2 | 3.44 | 1.66 | 2.8
C#CCN(N=O)C(=O)NC(CCCCNC(=O)OCc1ccccc1)C(=O)OCc1ccccc1 (stereo unspecified) | > 100 | 32.6 | 46.9 | > 100 | 65.1 | > 100 | > 100 | – | 87 | – | – | – | – | – | – | – | 31.7 | – | – | –
O=CC(OC(=O)c1ccccc1)C(OC(=O)c1ccccc1)C(COC(c1ccccc1)(c1ccccc1)c1ccccc1)OC(=O)c1ccccc1 (stereo unspecified) | 19 | – | 26.3 | 37.7 | 95.2 | 37.8 | 24.1 | 30.3 | 31.2 | 6.21 | – | 11.7 | 12.4 | 30.3 | 17.1 | 4.72 | 18.7 | 11 | 15.4 | 10.8
